Test results as given in patent US20250180567A1, “METHOD FOR MEASURING GL[…] ANTIGEN PROTEIN OF HBV” (RCMG Inc., priority 2021, published 2025).

Experiments:
glycosylated S-HBs = assay: lectin-antibody combination ELISA using sera from chronic hepatitis B patients; type: binding, hepatitis B virus; details: actual sera from chronic hepatitis B patients; lectin combined with S-HBs antibody
Procedure: This finding means that the glycosylated chains attached to S-HBs bind to WGA, which is completely unexpected.
Sera from untreated (no treatment history with nucleic acid analogs) chronic hepatitis B patients (HBs antigen positivity persisting for 6 months or more) (n=4) were used before (0) weeks) and 48 weeks after nucleic acid analog treatment. 1) HBsAg antibody (Hyb-824, 5 μg/mL) diluted with BSA (5 μg/mL)/PBS was added to a Nunc Immobilizer Amino Plate in an amount of 0.1 mL per well, and the plate was shaken at room temperature for 2 hours to immobilize the antibody. After washing twice with PBS-T, 0.3 mL of TBS was added per well and the wells were allowed to stand at 4° C. overnight for blocking. 2) After washing the wells with PBS-T, patient samples (before treatment and 48 weeks after treatment) were diluted 1/20 and 1/100 with Sample dilution buffer (3% BSA/TBS-T), and 0.1 mL was added per well, and the plate was shaken at room temperature for 1.5 hours to capture the antigen onto the antibody-immobilized plate. […] After the reaction was stopped, the absorbance at 450 nm was immediately measured by a plate reader.

[1] = tested on: glycosylated recombinant HBs antigen protein; assay: sandwich ELISA of immobilized HBs antibody (HBsAgGi) and biotinylated lectins; type: binding, hepatitis B virus; details: FIG. 1; for detection of N-glycosylated S-HBs as a specific positive signal (ELISA absorbance): lectin-biotin 1 μg/mL, absorbance at 450 nm
Procedure: A purified antibody against HBs antigen protein (HBsAgGi) was immobilized on a plate, and a sandwich ELISA system was constructed to examine the optimal lectin to be used for detecting the capturedHBs antigen.
1) HBsAgGi (5 μg/mL) diluted with BSA (5 μg/mL)/PBS was added to a Nunc Immobilizer Amino Plate at a volume of 0.1 mL per well, and the plate was shaken at room temperature for 4 hours to immobilize the antibody. After washing twice with PBS-T, 0.3 mL of TBS was added per well and the plate was allowed to stand overnight at 4° C. for blocking. 2) After washing with PBS-T, glycosylated recombinant HBs antigen protein was diluted to 400 ng/ml with Sample dilution buffer (3% BSA/TBS-T), 0.1 mL thereof was added per well, and the plate was shaken at room temperature for 2.5 hours to be captured the antigen on the antibody solid-phased plate. In order to confirm the effect of the serum, recombinant HBs antigen to which 5% Normal human serum (NHS) was added was also treated in the same manner. 3) After washing the wells four times with PBS-T, the wells were reacted with the following lectins diluted with PBS-T at room temperature for 2 hours by shaking.
Jacalin-biotin (1 μg/mL), MAL II-biotin (1 μg/mL), RCA120-biotin (1 μg/mL), SNA-biotin (1 μg/mL), SSA-biotin (1 μg/mL), WGA-biotin (1 μg/mL) 4) After washing four times with PBS-T, the wells were reacted with Peroxidase-conjugated Streptavidin (1/20,000 dilution) or SSA-HRP (2 μg/mL) diluted with PBS-T at room temperature for 1 hour by shaking.
5) After washing the wells four times with PBS-T, 0.1 mL of 1Step Ultra TMB-ELISA was added per well and allowed to react for 5 min, then 50 μL of 1 mol/L sulfuric acid was added to stop the reaction. After the reaction was stopped, the absorbance at 450 nm was immediately measured by a plate reader.

Substance: Salvia sclarea agglutinin [SSA lectin]
- specificity of detection of glycosylated S-HBs in patient sera (glycosylated S-HBs): unexpectedly low
- detection of N-glycosylated S-HBs as a specific positive signal (ELISA absorbance) [1]: could not detect

Substance: wheat germ agglutinin [WGA lectin]
- specificity of detection of glycosylated S-HBs in patient sera (glycosylated S-HBs): could specifically detect
- effect of NHS added to the sample on lectin detection ([1]; 5% Normal human serum (NHS) added to recombinant HBs antigen): not affected
- reaction of the lectin with the solid-phased antibody ([1]; antibody HBsAgGi immobilized on plate): did not react
- detection of N-glycosylated S-HBs as a specific positive signal (ELISA absorbance) [1]: very clear detection
